# Legend:
# [1] = tested on: carrageenan-induced foot edema; test: Rat Carrageenan Foot Pad Edema Test; type: in vivo, Male Sprague-Dawley rats; details: oral, 3 h after carrageenan injection
# Experimental: Rat Carrageenan Foot Pad Edema Test
# The carrageenan foot edema test was performed with materials, reagents and procedures essentially as described by Winter, et al. (Proc. Soc. Exp. Biol. Med., 11, 544 (1962)). Male Sprague-Dawley rats were selected in each group so that the average body weight was as close as possible. Rats were fasted with free access to water for over sixteen hours prior to the test. The rats were dosed orally (1 mL) with compounds suspended in vehicle containing 0.5% methylcellulose and 0.025% surfactant, or with vehicle alone. One hour later a subplantar injection of 0.1 mL of 1% solution of carrageenan/sterile 0.9% saline was administered and the volume of the injected foot was measured with a displacement plethysmometer connected to a pressure transducer with a digital indicator. Three hours after the injection of the carrageenan, the volume of the foot was again measured. The average foot swelling in a group of drug-treated animals was compared with that of a group of placebo-treated animals and the percentage inhibition of edema was determined (Ottertess and Bliven, Laboratory Models for Testing NSAIDs, in Non-steroidal Anti-inflammatory Drugs, (J. Lombardino, ed. 1985)).
# [2] = tested on: carrageenan-induced hyperalgesic foot withdrawal; test: Rat Carrageenan-induced Analgesia Test; type: in vivo, Male Sprague-Dawley rats; details: oral, inhibition of hyperalgesic foot withdrawal 3 h after carrageenan
# Experimental: Rat Carrageenan-induced Analgesia Test
# The rat carrageenan analgesia test was performed with materials, reagents and procedures essentially as described by Hargreaves, et al. (Pain, 32, 77 (1988)). Male Sprague-Dawley rats were treated as previously described for the Carrageenan Foot Pad Edema test. Three hours after the injection of the carrageenan, the rats were placed in a special plexiglass container with a transparent floor having a high intensity lamp as a radiant heat source, positionable under the floor. After an initial twenty minute period, thermal stimulation was begun on either the injected foot or on the contralateral uninjected foot. A photoelectric cell turned off the lamp and timer when light was interrupted by paw withdrawal. The time until the rat withdraws its foot was then measured. The withdrawal latency in seconds was determined for the control and drug-treated groups, and percent inhibition of the hyperalgesic foot withdrawal determined.
# [3] = tested on: COX I; details: read-out: COX I ID50; arachidonic acid 10 μM; pH 8.0; pre-incubated 10-20 minutes
# Experimental: Recombinant baculoviruses were isolated by transfecting 4 μg of baculovirus transfer vector DNA into SF9 insect cells ([…]) along with 200 ng of linearized baculovirus plasmid DNA by the calcium phosphate method. […] Exp. Station Bull. 1555 (1987). Recombinant viruses were purified by three rounds of plaque purification and high titer (10E7-10E8 pfu/ml) stocks of virus were prepared. For large scale production, SF9 insect cells were infected in 10 liter fermentors (0.5×10^6 /ml) with the recombinant baculovirus stock such that the multiplicity of infection was 0.1. After 72 hours the cells were centrifuged and the cell pellet homogenized in Tris/Sucrose (50 mM: 25%, pH 8.0) containing 1% 3-[(3-cholamidopropyl)dimethylammonio]-1-propanesulfonate (CHAPS). The homogenate was centrifuged at 10,000×G for 30 minutes, and the resultant supernatant was stored at -80° C. before being assayed for COX activity.
# COX activity was assayed as PGE2 formed/μg protein/time using an ELISA to detect the prostaglandin released. CHAPS-solubilized insect cell membranes containing the appropriate COX enzyme were incubated in a potassium phosphate buffer (50 mM, pH 8.0) containing epinephrine, phenol, and heme with the addition of arachidonic acid (10 μM). […] The PGE2 formed was measured by standard ELISA technology (Cayman Chemical).
# [4] = tested on: cyclooxygenase II; details: literature: Meade et al; Futaki et al; cited from earlier work
# [5] = literature: Futaki et al; cited from earlier work
SMILES,RAT PAW EDEMA % Inhibition @ 30 mg/kg body weight [1],ANALGESIA % Inhibition @ 10 mg/kg body weight [2],IC50 [3],inhibition of COX II enzyme [4],gastric side effects [5]
"CS(=O)(=O)c1ccc(C2=CC3(C=C2c2ccc(F)cc2)CC3)cc1 [Example 1, 5-(4-Fluorophenyl)-6-[4-(methylsulfonyl)phenyl]spiro[2.4]hepta-4,6-diene]",49%,94%,1300 nM,–,–
CS(=O)(=O)Nc1ccc([N+](=O)[O-])cc1OC1CCCCC1 [N-(2-cyclohexyloxy-4-nitrophenyl)methanesulfonamide],–,–,–,inhibits cyclooxygenase II,lacks gastric side effects
COc1ccc2cc(CC(=O)O)ccc2c1 [6-methoxy-2-napthylacetic acid],–,–,–,selectively inhibit the COX II enzyme,–

# From patent US5670510A, “Pyridyl substituted spirodienes for the treatment of inflammation” (G. D. Searle & Co., priority 1996, dated 1997)
